# Measurements taken from ChEMBL document CHEMBL4828738, “Design, synthesis and evaluation of novel 5-phenylthiophene derivatives as potent fungicidal of Candida albicans and antifungal reagents of fluconazole-resistant fungi” (Eur J Med Chem, 2021).
# How the values were obtained:
# [1] = system: Candida albicans; test: Antifungal activity against fluconazole-resistant Candida albicans 100 assessed as fungal growth inhibition by CLSI protocol based method
# [2] = system: Nakaseomyces glabratus; test: Antifungal activity against Candida glabrata assessed as fungal growth inhibition by CLSI protocol based method; format: functional
# [3] = system: Candida albicans; test: Antifungal activity against fluconazole-resistant Candida albicans 103 assessed as fungal growth inhibition by CLSI protocol based method
# [4] = system: Cryptococcus neoformans; test: Antifungal activity against Cryptococcus neoformans CGMCC2.3161 assessed as fungal growth inhibition by CLSI protocol based method; format: functional
# [5] = system: Candida albicans; test: Antifungal activity against fluconazole-resistant Candida albicans 632 assessed as fungal growth inhibition by CLSI protocol based method
# [6] = system: Candida albicans; test: Antifungal activity against Candida albicans CPCC400616 assessed as fungal growth inhibition by CLSI protocol based method; format: functional
# [7] = system: Candida parapsilosis; test: Antifungal activity against Candida parapsilosis GIM2.190 assessed as fungal growth inhibition by CLSI protocol based method; format: functional; conditions: Lodderomyces parapsilosis
# [8] = system: Pichia kudriavzevii; test: Antifungal activity against Candida krusei GIM2.1 assessed as fungal growth inhibition by CLSI protocol based method; format: functional
# [9] = system: Candida tropicalis; test: Antifungal activity against Candida tropicalis CGMCC 2.3739 assessed as fungal growth inhibition by CLSI protocol based method; format: functional
# [10] = system: Candida albicans; test: Antifungal activity against fluconazole-resistant Candida albicans 311 assessed as fungal growth inhibition by CLSI protocol based method
# [11] = system: Candida albicans; test: Antifungal activity against fluconazole-resistant Candida albicans 901 assessed as fungal growth inhibition by CLSI protocol based method
# [12] = system: Candida albicans; test: Antifungal activity against fluconazole-resistant Candida albicans 904 assessed as fungal growth inhibition by CLSI protocol based method
# [13] = system: Candida albicans; test: Antifungal activity against Candida albicans ATCC SC5314 assessed as fungal growth inhibition by CLSI protocol based method; format: functional
SMILES,MIC [1] [µg/mL],MIC [2] [µg/mL],MIC [3] [µg/mL],MIC [4] [µg/mL],MIC [5] [µg/mL],MIC [6] [µg/mL],MIC [7] [µg/mL],MIC [8] [µg/mL],MIC [9] [µg/mL],MIC [10] [µg/mL],MIC [11] [µg/mL],MIC [12] [µg/mL],MIC [13] [µg/mL]
O=C(NC(Cn1ccnc1)C(=O)c1cccc(Cl)c1)c1ccc(-c2ccc(Cl)cc2)s1 (stereo not drawn),2,0.5,4,> 64,> 64,0.25,0.5,> 64,1,4,8,> 64,< 0.03
COc1ccc(-c2ccc(C(=O)NC(Cn3ccnc3)C(=O)c3ccccc3)s2)cc1 (stereo not drawn),2,> 64,4,> 64,8,1,> 64,> 64,2,4,2,4,0.125
O=C(NC(Cn1ccnc1)C(=O)c1ccccc1)c1ccc(-c2cccc(Cl)c2)s1 (stereo not drawn),,> 64,,> 64,,32,> 64,> 64,32,,,,16
O=C(NC(Cn1ccnc1)C(=O)c1ccccc1)c1cc2ccccc2s1 (stereo not drawn),,> 64,,> 64,,> 64,> 64,> 64,> 64,,,,> 64
O=C(NC(Cn1ccnc1)C(=O)c1ccccc1)c1ccc(-c2ccc(F)cc2)s1 (stereo not drawn),,> 64,,> 64,,32,> 64,> 64,32,,,,1
O=C(NC(Cn1ccnc1)C(=O)c1ccccc1F)c1ccc(-c2ccc(Cl)cc2)s1 (stereo not drawn),> 64,> 64,4,2,> 64,0.06,> 64,1,> 64,8,2,> 64,0.06
O=C(NC(Cn1ccnc1)C(=O)c1ccc(F)cc1)c1ccc(-c2ccc(Cl)cc2)s1 (stereo not drawn),4,1,8,> 64,4,0.25,> 64,> 64,2,4,8,16,0.06
O=C(NC(Cn1ccnc1)C(=O)c1ccccc1)c1ccc(-c2ccccc2)s1 (stereo not drawn),4,2,4,8,8,0.5,0.5,32,1,8,4,4,0.5
O=C(NC(Cn1ccnc1)C(=O)c1ccccc1)c1ccc(-c2ccc(F)cc2F)s1 (stereo not drawn),,> 64,,> 64,,> 64,> 64,> 64,> 64,,,,8
O=C(NC(Cn1ccnc1)C(=O)c1ccccc1)c1ccc(N2CCN(c3ccccc3)CC2)cc1 (stereo not drawn),,> 64,,> 64,,> 64,> 64,> 64,> 64,,,,> 64
O=C(NC(Cn1ccnc1)C(=O)c1ccc(F)cc1F)c1ccc(-c2ccc(Cl)cc2)s1 (stereo not drawn),,> 64,,2,,> 64,> 64,> 64,> 64,,,,0.5
O=C(NC(Cn1ccnc1)C(=O)c1ccccc1)c1ccc(-c2ccc(Cl)cc2Cl)s1 (stereo not drawn),,> 64,,> 64,,> 64,> 64,> 64,> 64,,,,> 64
O=C(NC(Cn1ccnc1)C(=O)c1ccccc1)c1ccc(-c2cccc(F)c2)s1 (stereo not drawn),,> 64,,> 64,,64,> 64,> 64,> 64,,,,8
CCOc1ccc(-c2ccc(C(=O)NC(Cn3ccnc3)C(=O)c3ccccc3)s2)cc1 (stereo not drawn),,> 64,,> 64,,> 64,> 64,> 64,> 64,,,,> 64
